Tests used:
[1] = system: A549-ACE2 infected with SARS-CoV-2; test: cell count relative to DMSO; higher = less toxic; conditions: 24 h
Caco-2 [2] = test: cell viability relative to DMSO; higher = less toxic; conditions: 72 h
Calu-3 [3] = test: as above; conditions: 72 h
HepG2 [4] = test: as above; conditions: 72 h
U2OS [5] = test: as above; conditions: 72 h
Vero E6 [6] = test: as above; conditions: 72 h
[7] = system: A549-ACE2 infected with SARS-CoV-2; test: SARS-CoV-2 infection rate relative to DMSO; higher = more infection; conditions: 24 h
A549-ACE2 [8] = test: phospholipidosis EC50; higher = less potent phospholipidosis inducer
A549-ACE2 [9] = test: drug-induced phospholipidosis relative to tamoxifen; higher = more phospholipidosis
[10] = system: A549-ACE2 infected with SARS-CoV-2; test: morphology score (similarity to uninfected cells); higher = more like uninfected cells; conditions: 24 h
Caco-2 [11] = test: relative viability EC50 (midpoint between 100% and the lowest measured viability); higher = less toxic; conditions: 72 h
Calu-3 [12] = test: as above; conditions: 72 h
HepG2 [13] = test: as above; conditions: 72 h
U2OS [14] = test: as above; conditions: 72 h
Vero E6 [15] = test: as above; conditions: 72 h
Caco-2 [16] = test: drug sensitivity score (DSS) for viability; higher = more toxic; extreme values may be limits of the assay; conditions: 72 h
Calu-3 [17] = test: as above; conditions: 72 h
HepG2 [18] = test: as above; conditions: 72 h
U2OS [19] = test: as above; conditions: 72 h
Vero E6 [20] = test: as above; conditions: 72 h

CC(CN1c2ccccc2Sc2ccccc21)N(C)C (stereo not drawn) [promethazine]
Conditions	SARS-CoV-2 infection rate [%]	cell count [%]	cell viability [%]	morphology score	phospholipidosis EC50 [µM]
A549-ACE2 [8], 24 h	–	–	–	–	7.49
A549-ACE2 [8], 48 h	–	–	–	–	9.37
A549-ACE2 [8], 72 h	–	–	–	–	11.1
Caco-2 [2], 1 nM	–	–	99.8	–	–
Caco-2 [2], 10 nM	–	–	99	–	–
Caco-2 [2], 100 nM	–	–	106	–	–
Caco-2 [2], 1000 nM	–	–	107	–	–
Caco-2 [2], 10000 nM	–	–	92.7	–	–
Calu-3 [3], 1 nM	–	–	112	–	–
Calu-3 [3], 10 nM	–	–	103	–	–
Calu-3 [3], 100 nM	–	–	98.6	–	–
Calu-3 [3], 1000 nM	–	–	103	–	–
Calu-3 [3], 10000 nM	–	–	96.1	–	–
HepG2 [4], 1 nM	–	–	119	–	–
HepG2 [4], 10 nM	–	–	96.4	–	–
HepG2 [4], 100 nM	–	–	78.1	–	–
HepG2 [4], 1000 nM	–	–	103	–	–
HepG2 [4], 10000 nM	–	–	83.3	–	–
U2OS [5], 1 nM	–	–	103	–	–
U2OS [5], 10 nM	–	–	108	–	–
U2OS [5], 100 nM	–	–	97.8	–	–
U2OS [5], 1000 nM	–	–	100	–	–
U2OS [5], 10000 nM	–	–	94.9	–	–
Vero E6 [6], 1 nM	–	–	101	–	–
Vero E6 [6], 10 nM	–	–	95.5	–	–
Vero E6 [6], 100 nM	–	–	99.4	–	–
Vero E6 [6], 1000 nM	–	–	102	–	–
Vero E6 [6], 10000 nM	–	–	80.5	–	–
[1], 0.3 µM	–	103	–	–	–
[1], 3 µM	–	112	–	–	–
[1], 10 µM	–	118	–	–	–
[1], 30 µM	–	115	–	–	–
[7], 0.3 µM	93	–	–	–	–
[7], 3 µM	51	–	–	–	–
[7], 10 µM	63	–	–	–	–
[7], 30 µM	11	–	–	–	–
[10], 0.3 µM	–	–	–	0.09	–
[10], 3 µM	–	–	–	0.72	–
[10], 10 µM	–	–	–	0.76	–
[10], 30 µM	–	–	–	0.72	–

drug-induced phospholipidosis [%], A549-ACE2 [9]
Conditions	0.3 µM	0.833333 µM	3.33333 µM	6.66667 µM	10 µM	30 µM
24 h	1.08	0.17	9.69	43.2	62.1	92
48 h	-0.1	0.2	6.54	31.9	55.6	96.7
72 h	1.14	0.443	8.72	23.6	50.4	102

Conditions	drug sensitivity score	relative viability EC50 [µM]
Caco-2 [11]	–	> 10
Caco-2 [16]	0	–
Calu-3 [12]	–	> 10
Calu-3 [17]	0	–
HepG2 [13]	–	> 10
HepG2 [18]	0.3	–
U2OS [14]	–	> 10
U2OS [19]	0	–
Vero E6 [15]	–	> 10
Vero E6 [20]	0.4	–

COc1cc(C[C@H]2c3cc(OC)c(OC)cc3CCN2C)c(Oc2cc3c(cc2OC)-c2c(OC)c(OC)cc4c2[C@H](C3)N(C)CC4)cc1OC [thaliblastine]
Conditions	SARS-CoV-2 infection rate [%]	cell count [%]	cell viability [%]	morphology score	phospholipidosis EC50 [µM]
A549-ACE2 [8], 24 h	–	–	–	–	1.3
A549-ACE2 [8], 48 h	–	–	–	–	2.7
A549-ACE2 [8], 72 h	–	–	–	–	6.76
Caco-2 [2], 1 nM	–	–	88.3	–	–
Caco-2 [2], 10 nM	–	–	93.6	–	–
Caco-2 [2], 100 nM	–	–	104	–	–
Caco-2 [2], 1000 nM	–	–	102	–	–
Caco-2 [2], 10000 nM	–	–	86	–	–
Calu-3 [3], 1 nM	–	–	102	–	–
Calu-3 [3], 10 nM	–	–	109	–	–
Calu-3 [3], 100 nM	–	–	97.1	–	–
Calu-3 [3], 1000 nM	–	–	90.2	–	–
Calu-3 [3], 10000 nM	–	–	18.2	–	–
HepG2 [4], 1 nM	–	–	92.4	–	–
HepG2 [4], 10 nM	–	–	111	–	–
HepG2 [4], 100 nM	–	–	96.3	–	–
HepG2 [4], 1000 nM	–	–	105	–	–
HepG2 [4], 10000 nM	–	–	62	–	–
U2OS [5], 1 nM	–	–	94.4	–	–
U2OS [5], 10 nM	–	–	93.9	–	–
U2OS [5], 100 nM	–	–	100	–	–
U2OS [5], 1000 nM	–	–	96.6	–	–
U2OS [5], 10000 nM	–	–	83	–	–
Vero E6 [6], 1 nM	–	–	90.6	–	–
Vero E6 [6], 10 nM	–	–	100	–	–
Vero E6 [6], 100 nM	–	–	89.8	–	–
Vero E6 [6], 1000 nM	–	–	102	–	–
Vero E6 [6], 10000 nM	–	–	96.6	–	–
[1], 0.3 µM	–	109	–	–	–
[1], 3 µM	–	120	–	–	–
[1], 10 µM	–	122	–	–	–
[1], 30 µM	–	115	–	–	–
[7], 0.3 µM	95	–	–	–	–
[7], 3 µM	28	–	–	–	–
[7], 10 µM	21	–	–	–	–
[7], 30 µM	34	–	–	–	–
[10], 0.3 µM	–	–	–	0.32	–
[10], 3 µM	–	–	–	0.61	–
[10], 10 µM	–	–	–	0.29	–
[10], 30 µM	–	–	–	-0.02	–

drug-induced phospholipidosis [%], A549-ACE2 [9]
Conditions	0.3 µM	0.833333 µM	3.33333 µM	6.66667 µM	10 µM	30 µM
24 h	9.75	20.6	72.4	86.2	80.5	65.6
48 h	11.1	12.9	77.4	95.4	104	120
72 h	10.4	12.7	67.9	103	105	154

Conditions	drug sensitivity score	relative viability EC50 [µM]
Caco-2 [11]	–	> 10
Caco-2 [16]	0.1	–
Calu-3 [12]	–	2.18
Calu-3 [17]	6.2	–
HepG2 [18]	1.5	–
U2OS [14]	–	> 10
U2OS [19]	0.8	–
Vero E6 [15]	–	> 10
Vero E6 [20]	0	–

c1ccc(C(O[C@@H]2CCCN(CCc3ccc4c(c3)OCO4)C2)c2ccccc2)cc1 [zamifenacin]
cell viability [%]
Conditions	Caco-2 [2]	Calu-3 [3]	HepG2 [4]	U2OS [5]	Vero E6 [6]
1 nM	94.8	104	92.6	104	96.9
10 nM	91.7	99.2	107	99.6	102
100 nM	98.6	97	92.7	98.8	96.7
1000 nM	98.3	102	108	98.3	98.3
10000 nM	92.5	92.2	92.1	96	94.9

Conditions	drug sensitivity score	relative viability EC50 [µM]
Caco-2 [11]	–	> 10
Caco-2 [16]	0	–
Calu-3 [12]	–	> 10
Calu-3 [17]	0	–
HepG2 [13]	–	> 10
HepG2 [18]	0	–
U2OS [14]	–	> 10
U2OS [19]	0	–
Vero E6 [15]	–	> 10
Vero E6 [20]	0	–

COc1nc(C)cnc1NS(=O)(=O)c1cccnc1-c1ccc(-c2nnco2)cc1 [zibotentan]
cell viability [%]
Conditions	Caco-2 [2]	Calu-3 [3]	HepG2 [4]	U2OS [5]	Vero E6 [6]
1 nM	104	105	99.8	95.7	102
10 nM	95.2	102	98	99.4	96.5
100 nM	94.9	98.9	102	97.7	94.4
1000 nM	101	104	101	103	99.3
10000 nM	94.9	111	107	105	102

Conditions	drug sensitivity score	relative viability EC50 [µM]
Caco-2 [11]	–	> 10
Caco-2 [16]	0	–
Calu-3 [12]	–	> 10
Calu-3 [17]	0	–
HepG2 [13]	–	> 10
HepG2 [18]	0	–
U2OS [14]	–	> 10
U2OS [19]	0	–
Vero E6 [15]	–	> 10
Vero E6 [20]	0	–

c1cc(CN2CCCCC2)cc(OCCCNc2nc3ccccc3s2)c1 [zolantidine]
Conditions	SARS-CoV-2 infection rate [%]	cell count [%]	cell viability [%]	morphology score	phospholipidosis EC50 [µM]
A549-ACE2 [8], 24 h	–	–	–	–	7.87
A549-ACE2 [8], 48 h	–	–	–	–	9.34
A549-ACE2 [8], 72 h	–	–	–	–	12.4
Caco-2 [2], 1 nM	–	–	104	–	–
Caco-2 [2], 10 nM	–	–	93.4	–	–
Caco-2 [2], 100 nM	–	–	99.7	–	–
Caco-2 [2], 1000 nM	–	–	96.6	–	–
Caco-2 [2], 10000 nM	–	–	86.4	–	–
Calu-3 [3], 1 nM	–	–	89.8	–	–
Calu-3 [3], 10 nM	–	–	88.3	–	–
Calu-3 [3], 100 nM	–	–	108	–	–
Calu-3 [3], 1000 nM	–	–	98.1	–	–
Calu-3 [3], 10000 nM	–	–	84.9	–	–
HepG2 [4], 1 nM	–	–	99.1	–	–
HepG2 [4], 10 nM	–	–	91.8	–	–
HepG2 [4], 100 nM	–	–	97.6	–	–
HepG2 [4], 1000 nM	–	–	102	–	–
HepG2 [4], 10000 nM	–	–	89.5	–	–
U2OS [5], 1 nM	–	–	101	–	–
U2OS [5], 10 nM	–	–	95.9	–	–
U2OS [5], 100 nM	–	–	104	–	–
U2OS [5], 1000 nM	–	–	97.6	–	–
U2OS [5], 10000 nM	–	–	94.6	–	–
Vero E6 [6], 1 nM	–	–	90.2	–	–
Vero E6 [6], 10 nM	–	–	103	–	–
Vero E6 [6], 100 nM	–	–	98.3	–	–
Vero E6 [6], 1000 nM	–	–	102	–	–
Vero E6 [6], 10000 nM	–	–	94.4	–	–
[1], 0.3 µM	–	101	–	–	–
[1], 3 µM	–	118	–	–	–
[1], 10 µM	–	119	–	–	–
[1], 30 µM	–	124	–	–	–
[7], 0.3 µM	98	–	–	–	–
[7], 3 µM	50	–	–	–	–
[7], 10 µM	20	–	–	–	–
[7], 30 µM	12	–	–	–	–
[10], 0.3 µM	–	–	–	-0.12	–
[10], 3 µM	–	–	–	0.76	–
[10], 10 µM	–	–	–	0.9	–
[10], 30 µM	–	–	–	0.62	–

drug-induced phospholipidosis [%], A549-ACE2 [9]
Conditions	0.3 µM	0.833333 µM	3.33333 µM	6.66667 µM	10 µM	30 µM
24 h	3.01	2.56	9.9	36.9	64.3	91.7
48 h	3.2	2.85	4.98	28.7	56.2	97.1
72 h	5.43	2.63	7.7	25.4	50.3	116

Conditions	drug sensitivity score	relative viability EC50 [µM]
Caco-2 [11]	–	> 10
Caco-2 [16]	0.2	–
Calu-3 [12]	–	> 10
Calu-3 [17]	0.4	–
HepG2 [13]	–	> 10
HepG2 [18]	0	–
U2OS [14]	–	> 10
U2OS [19]	0	–
Vero E6 [15]	–	> 10
Vero E6 [20]	0	–
